Drawing on patent US9085576B2 (AMGEN INC., priority 2013, dated 2015), this text covers IC50 for 27 compounds.

Structures can show the parent of a compound that is named as a salt.

For this test, the target named is Cathepsin D (Cat D) (Homo sapiens (Human), UniProt P07339). The test is described as follows: In vitro enzymatic Cathepsin D (Cat D) FRET assay. The format is biochemical. The settings on record: read-out: CatD IC50.
Chain of Cathepsin D (Cat D) (P07339 65-412, species assumed): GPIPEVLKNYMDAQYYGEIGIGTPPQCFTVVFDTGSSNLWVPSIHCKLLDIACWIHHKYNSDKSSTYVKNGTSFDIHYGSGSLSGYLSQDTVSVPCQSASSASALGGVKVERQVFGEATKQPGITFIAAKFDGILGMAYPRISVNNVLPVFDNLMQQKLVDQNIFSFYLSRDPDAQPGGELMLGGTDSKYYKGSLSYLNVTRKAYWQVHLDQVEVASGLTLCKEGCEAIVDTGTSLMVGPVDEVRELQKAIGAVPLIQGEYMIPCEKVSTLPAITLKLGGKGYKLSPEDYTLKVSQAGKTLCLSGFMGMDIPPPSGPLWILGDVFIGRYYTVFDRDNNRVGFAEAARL
As to `Cc1cc(OCC#CC(C)(C)O)cnc1C(=O)Nc1ccc(F)c(C2(C)N=C(N)O[C@H]3C[C@H]32)c1` (mixture of isomers) [Example 29, N-(3-([1(R,S),5(S,R),6(R,S)]-3-amino-5-methyl-2-oxa-4-azabicyclo[4.1.0]hept-3-en-5-yl)-4-fluorophenyl)-5-((4-hydroxy-4-methylpent-2-yn-1-yl)oxy)-3-methylpicolinamide], the IC50 was found to be 462 µM.

In the case of `Cc1cc(NC(=O)c2ccc(Cl)cn2)cc([C@@]2(C(F)F)N=C(N)O[C@@H]3C[C@@H]32)c1F` (racemic) [Example 30, N-(3-([(1R,S),(5S,R),(6R,S)]-3-amino-5-(difluoromethyl)-2-oxa-4-azabicyclo[4.1.0]hept-3-en-5-yl)-4-fluoro-5-methylphenyl)-5-chloropicolinamide], the IC50 came to 469 µM.

For `COc1c(F)cc(NC(=O)c2ccc(Cl)cn2)cc1[C@@]1(CF)N=C(N)O[C@@H]2C[C@@H]21` (racemic) [Example 31, N-(3-([(1R,S),(5S,R),(6R,S)]-3-amino-5-(fluoromethyl)-2-oxa-4-azabicyclo[4.1.0]hept-3-en-5-yl)-5-fluoro-4-methoxyphenyl)-5-chloropicolinamide], the IC50 stood at 339 µM.

Consider `N#Cc1ccc(C(=O)Nc2ccc(F)c([C@]3(C(F)F)N=C(N)O[C@H]4C[C@H]43)c2)nc1` (racemic) [Example 59, N-(3-([1(R,S),5(S,R),6(R,S)]-3-amino-5-(difluoromethyl)-2-oxa-4-azabicyclo[4.1.0]hept-3-en-5-yl)-4-fluorophenyl)-5-cyanopicolinamide compound], for which the IC50 stood at 899 µM.

In the case of `N#Cc1cnc(C(=O)Nc2ccc(F)c([C@]3(C(F)F)N=C(N)O[C@H]4C[C@H]43)c2)c(Cl)c1` (racemic) [Example 62, N-(3-([1(R,S),5(S,R),6(R,S)]-3-amino-5-(difluoromethyl)-2-oxa-4-azabicyclo[4.1.0]hept-3-en-5-yl)-4-fluorophenyl)-3-chloro-5-cyanopicolinamide], the 50% inhibitory concentration (IC50) was 1100 µM.

Turning to `N#Cc1ccc(C(=O)Nc2cnc(F)c([C@]3(C(F)F)N=C(N)O[C@H]4C[C@H]43)c2)nc1` (racemic) [Example 75, N-(5-([1(R,S),5(S,R),6(R,S)]-3-amino-5-(difluoromethyl)-2-oxa-4-azabicyclo[4.1.0]hept-3-en-5-yl)-6-fluoropyridin-3-yl)-5-cyanopicolinamide], the IC50 came out at 348 µM.

On to `N#Cc1ccc(C(=O)Nc2ccc(Cl)c([C@@]3(C(F)F)N=C(N)O[C@@H]4C[C@@H]43)c2)nc1` (racemic) [Example 98, N-(3-(((1R,S), (5S,R), (6R,S))-3-amino-5-(difluoromethyl)-2-oxa-4-azabicyclo[4.1.0]hept-3-en-5-yl)-4-chlorophenyl)-5-cyanopicolinamide trifluoroacetate], for which the IC50 was determined as 1160 µM.

As to `N#Cc1ccc(C(=O)Nc2cc(F)c(F)c([C@@]3(C(F)F)N=C(N)O[C@@H]4C[C@@H]43)c2)nc1` (stereo in doubt) [Example 109, N-(3-((1R,5S,6R)-3-amino-5-(difluoromethyl)-2-oxa-4-azabicyclo[4.1.0]hept-3-en-5-yl)-4,5-difluorophenyl)-5-cyanopicolinamide], the IC50 is above 400 µM.

For `N#Cc1ccc(C(=O)Nc2cc(F)c(F)c([C@@]3(CF)N=C(N)O[C@@H]4C[C@@H]43)c2)nc1` [Example 37, N-(3-((1R,5S,6R)-3-amino-5-(fluoromethyl)-2-oxa-4-azabicyclo[4.1.0]hept-3-en-5-yl)-4,5-difluorophenyl)-5-cyanopicolinamide], the IC50 was 364 µM.

`N#Cc1ccc(C(=O)Nc2cc(F)c(F)c([C@]3(CF)N=C(N)O[C@H]4C[C@H]43)c2)nc1` [Example 38, N-(3-((1S,55,6S) 3-amino-5-(fluoromethyl)-2-oxa-4-azabicyclo[4.1.0]hept-3-en-5-yl)-4,5-difluorophenyl)-5-cyanopicolinamide]: the IC50 turned out to be 2620 µM.

Take `COc1ccc(C(=O)Nc2cc(F)c(F)c([C@@]3(CF)N=C(N)O[C@@H]4C[C@@H]43)c2)nc1` [Example 41, N-(3-((1R,5S,6R)-3-amino-5-(fluoromethyl)-2-oxa-4-azabicyclo[4.1.0]hept-3-en-5-yl)-4,5-difluorophenyl)-5-methoxypicolinamide]: the IC50 was found to be 238 µM.

Take `COCc1cc(Cl)cnc1C(=O)Nc1ccc(F)c([C@@]2(C(F)F)N=C(N)O[C@@H]3C[C@@H]32)c1` [Example 42, N-(3-((1R,5S,6R)-3-amino-5-(difluoromethyl)-2-oxa-4-azabicyclo[4.1.0]hept-3-en-5-yl)-4-fluorophenyl)-5-chloro-3-(methoxymethyl) picolinamide]: the IC50 was determined as 736 µM.

Take `N#Cc1ccc(C(=O)Nc2ccc(F)c([C@]3(C(F)F)N=C(N)O[C@H]4C[C@H]43)c2)nc1` [Example 65, N-(3-((1S,5R,6S)-3-amino-5-(difluoromethyl)-2-oxa-4-azabicyclo[4.1.0]hept-3-en-5-yl)-4-fluorophenyl)-5-cyanopicolinamide]: the IC50 is above 400 µM.

`N#Cc1cnc(C(=O)Nc2ccc(F)c([C@]3(C(F)F)N=C(N)O[C@H]4C[C@H]43)c2)c(Cl)c1` [Example 67, N-(3-((1S,5R,6S)-3-amino-5-(difluoromethyl)-2-oxa-4-azabicyclo[4.1.0]hept-3-en-5-yl)-4-fluorophenyl)-3-chloro-5-cyanopicolinamide]: the IC50 worked out at 1290 µM.

Regarding `N#Cc1ccc(C(=O)Nc2ccc(Cl)c([C@]3(C(F)F)N=C(N)O[C@H]4C[C@H]43)c2)nc1` [Example 94, N-(3-((1S,5R,6S)-3-amino-5-(difluoromethyl)-2-oxa-4-azabicyclo[4.1.0]hept-3-en-5-yl)-4-chlorophenyl)-5-cyanopicolinamide], the IC50 was determined as 1920 µM.

For the compound `NC1=N[C@@](c2cc(NC(=O)c3ccc(Cl)cn3)cc(F)c2F)(C(F)F)[C@H]2C[C@H]2O1` [Example 107, N-(3-((1R,5S,6R)-3-amino-5-(difluoromethyl)-2-oxa-4-azabicyclo[4.1.0]hept-3-en-5-yl)-4,5-difluorophenyl)-5-chloropicolinamide], the IC50 turned out to be 213 µM.

For the compound `NC1=N[C@](c2cc(NC(=O)c3ccc(Cl)cn3)cc(F)c2F)(C(F)F)[C@@H]2C[C@@H]2O1` [Example 108, N-(3-((1S,5R,6S)-3-amino-5-(difluoromethyl)-2-oxa-4-azabicyclo[4.1.0]hept-3-en-5-yl)-4,5-difluorophenyl)-5-chloropicolinamide], the IC50 amounted to 472 µM.

`COc1cnc(C(=O)Nc2cc(F)c(F)c([C@@]3(C(F)F)N=C(N)O[C@@H]4C[C@@H]43)c2)cn1` [Example 112, N-(3-((1R,5S,6R)-3-amino-5-(difluoromethyl)-2-oxa-4-azabicyclo[4.1.0]hept-3-en-5-yl)-4,5-difluorophenyl)-5-methoxypyrazine-2-carboxamide]: the IC50 stood at 4180 µM.

Regarding `N#Cc1ccc(C(=O)Nc2cc(F)c(F)c([C@@]3(C(F)F)N=C(N)O[C@@H]4C[C@@H]43)c2)nc1` [Example 113, N-(3-((1R,5S,6R)-3-amino-5-(difluoromethyl)-2-oxa-4-azabicyclo[4.1.0]hept-3-en-5-yl)-4,5-difluorophenyl)-5-cyanopicolinamide], the IC50 was above 618 µM.

As to `NC1=N[C@@](c2cc(NC(=O)c3ccc(Br)cn3)cc(F)c2F)(C(F)F)[C@H]2C[C@H]2O1` [Example 116, N-(3-((1R,5S,6R)-3-amino-5-(difluoromethyl)-2-oxa-4-azabicyclo[4.1.0]hept-3-en-5-yl)-4,5-difluorophenyl)-5-bromopicolinamide], the IC50 was 81.9 µM.

For the compound `Cc1cc(NC(=O)c2ccc(Cl)cn2)cc([C@@]2(C(F)F)N=C(N)O[C@@H]3C[C@@H]32)c1F` [Example 121, N-(3-((1R,5S,6R)-3-amino-5-(difluoromethyl)-2-oxa-4-azabicyclo[4.1.0]hept-3-en-5-yl)-4-fluoro-5-methylphenyl)-5-chloropicolinamide], the IC50 worked out at 206 µM.

For `Cc1cc(NC(=O)c2ccc(Cl)cn2)cc([C@@]2(C(F)F)N=C(N)O[C@@H]3C[C@@H]32)c1F` [Example 123, N-(3-((1R,5S,6R)-3-amino-5-(difluoromethyl)-2-oxa-4-azabicyclo[4.1.0]hept-3-en-5-yl)-4-fluoro-5-methylphenyl)-5-chloropicolinamide], the IC50 came out at 257 µM.

Take `Cc1cc(NC(=O)c2ccc(Cl)cn2)cc([C@]2(C(F)F)N=C(N)O[C@H]3C[C@H]32)c1F` [Example 124, N-(3-((1 S,5R,6S)-3-amino-5-(difluoromethyl)-2-oxa-4-azabicyclo[4.1.0]hept-3-en-5-yl)-4-fluoro-5-methylphenyl)-5-chloropicolinamide]: the IC50 is 1230 µM.

`Cc1cc(C#N)cnc1C(=O)Nc1cc(C)c(F)c([C@@]2(C(F)F)N=C(N)O[C@@H]3C[C@@H]32)c1` [Example 132, N-(3-((1R,5S,6R)-3-amino-5-(difluoromethyl)-2-oxa-4-azabicyclo[4.1.0]hept-3-en-5-yl)-4-fluoro-5-methylphenyl)-5-cyano-3-methylpicolinamide]: the IC50 was 725 µM.

`COc1c(F)cc(NC(=O)c2ccc(Cl)cn2)cc1[C@@]1(CF)N=C(N)O[C@@H]2C[C@@H]21` [Example 145, N-(3-((1R,5S,6R)-3-amino-5-(fluoromethyl)-2-oxa-4-azabicyclo[4.1.0]hept-3-en-5-yl)-5-fluoro-4-methoxyphenyl)-5-chloropicolinamide]: the IC50 is 220 µM.

Turning to `COc1c(F)cc(NC(=O)c2ccc(Cl)cn2)cc1[C@]1(CF)N=C(N)O[C@H]2C[C@H]21` [Example 146, N-(3-((1S,5R,6S)-3-amino-5-(fluoromethyl)-2-oxa-4-azabicyclo[4.1.0]hept-3-en-5-yl)-5-fluoro-4-methoxyphenyl)-5-chloropicolinamide], the IC50 was determined as 768 µM.

Regarding `C#C[C@@H](C)Oc1cnc(C(=O)Nc2ccc(F)c([C@@]3(C(F)F)N=C(N)O[C@@H]4C[C@@H]43)c2)cn1` [Example 148, N-(3-((1R,5S,6R)-3-amino-5-(difluoromethyl)-2-oxa-4-azabicyclo[4.1.0]hept-3-en-5-yl)-4-fluorophenyl)-5-((R)-but-3-yn-2-yloxy)pyrazine-2-carboxamide], the IC50 turned out to be 849 µM.
